Tests used:
LDL = LDL laboratory test in the 3×3 factorial trial; type: in vivo, human; conditions: Week 12 v/s Baseline
Method: (§1) There was a 4 week screening period and another 4-week post study drug observational period.
(§2) Group 2 received the low-dose BP lowering combination and simvastatin (i.e., telmisartan 20 mg+amlodipine 2.5 mg+simvastatin). Group 3 received the low-dose BP lowering combination and placebo (i.e., telmisartan 20 mg+amlodipine 2.5 mg+placebo). […] Group 9 received double placebo.
Change in DBP and SBP • 2. Change in LDL Secondary Outcomes: • 1. Tolerability: • a. […] Difference between groups in participant withdrawals from treatment • 2. Safety: Percentage with any severe adverse event (SAE) • 3. Medication adherence: self-reported measures, pill counts BP Measurement:
Potassium (K+), sodium (Na+), serum creatinine and LDL were measured at screening and at the 12-week end of treatment follow-up visit.
(§3) All analyses of study outcomes were conducted according to the principle of intention-to-treat. The analyses of continuous outcomes such SBP and LDL-cholesterol at 12 weeks was performed using ANCOVA including the treatment arm and baseline values as a covariate. Additional analyses included interim measurements in a longitudinal model including treatment arm, visit, and treatment by visit interaction as well as the baseline measurement. Within-patient correlations were modelled using generalized estimating equations. A similar approach was applied to binary endpoints with log-binomial regression used in place of linear regression. There were also pre-defined subgroup analyses, baseline BP, baseline LDL, gender and age.

[1] = tested on: participants with migraine; assay: Office blood pressure in 12-week double blind randomized 3×3 factorial trial; type: in vivo, human
Method: as §1
There was a 4-week screening period and another 4-week post study drug observational period.
as §2
Office BP was measured following the recommendations of the Australian National Heart Foundation. Participants were rested in the seated position for 5 minutes, an appropriate cuff size was selected and 3 measurements of BP were recorded using an Omron HEM907 monitor or equivalent validated automated digital BP monitor. Principles of automated office BP measurements were applied whereby the patient was left alone during BP recording.
as §3

[2] = Randomization (baseline, before treatment)
[3] = Randomization, BP arm versus placebo, interval in brackets
[4] = Week 4, BP arm versus placebo, interval in brackets

Compound: CC(C)NCC(O)COc1cccc2ccccc12 (stereo not drawn) [Propranolol, propranolol]
- Change in LDL from baseline to 12 weeks Mean (SD) (LDL): 10 −0.9 (1.03) mmol/l
- Change in LDL from baseline to 12 weeks Q1 (LDL): -1.3 mmol/L
- Change in LDL from baseline to 12 weeks Q2 (LDL): -0.7 mmol/L
- Change in LDL from baseline to 12 weeks Q3 (LDL): -0.2 mmol/L
- Change in LDL from baseline to 12 weeks max (LDL): 0 mmol/L
- Change in LDL from baseline to 12 weeks min (LDL): -3 mmol/L
- Diastolic Blood Pressure Mean (SD) [1, 2]: 10 85.1 (12.48) mmHg
- Diastolic Blood Pressure Q1 [1, 2]: 75.7 mmHg
- Diastolic Blood Pressure Q2 [1, 2]: 77.7 mmHg
- Diastolic Blood Pressure Q3 [1, 2]: 95.7 mmHg
- Diastolic Blood Pressure min [1, 2]: 73 mmHg
- Systolic Blood Pressure Mean (SD) [1, 2]: 10 130.4 (16.09) mmHg
- Systolic Blood Pressure Q1 [1, 2]: 116.7 mmHg
- Systolic Blood Pressure Q2 [1, 2]: 129.3 mmHg
- Systolic Blood Pressure Q3 [1, 2]: 146.3 mmHg
- Systolic Blood Pressure max [1, 2]: 153 mmHg
- Diastolic Blood Pressure Mean difference [1, 3]: 3.67 (−4.68, 12.02) mmHg
- Systolic Blood Pressure Mean difference [1, 3]: 6.52 (−4.86, 17.91) mmHg
- Diastolic Blood Pressure Mean (SD) ([1]; Week 4): 10 75.5 (9.75) mmHg
- Diastolic Blood Pressure Q1 ([1]; Week 4): 69.0 mmHg
- Diastolic Blood Pressure Q2 ([1]; Week 4): 73.3 mmHg
- Diastolic Blood Pressure Q3 ([1]; Week 4): 83.3 mmHg
- Diastolic Blood Pressure max ([1]; Week 4): 89 mmHg
- Diastolic Blood Pressure min ([1]; Week 4): 62 mmHg
- Diastolic Blood Pressure, Change from Baseline, Mean (SD) ([1]; Week 4): 10 −9.6 (5.66)
- Diastolic Blood Pressure, Change from Baseline, Q1 ([1]; Week 4): −13.0
- Diastolic Blood Pressure, Change from Baseline, Q2 ([1]; Week 4): −10.3
- Diastolic Blood Pressure, Change from Baseline, Q3 ([1]; Week 4): −4.3
- Diastolic Blood Pressure, Change from Baseline, max ([1]; Week 4): −1
- Diastolic Blood Pressure, Change from Baseline, min ([1]; Week 4): −19
- Systolic Blood Pressure Mean (SD) ([1]; Week 4): 10 121.3 (14.92) mmHg
- Systolic Blood Pressure Q1 ([1]; Week 4): 108.7 mmHg
- Systolic Blood Pressure Q2 ([1]; Week 4): 116.8 mmHg
- Systolic Blood Pressure Q3 ([1]; Week 4): 135.3 mmHg
- Systolic Blood Pressure max ([1]; Week 4): 146 mmHg
- Systolic Blood Pressure, Change from Baseline, Mean (SD) ([1]; Week 4): 10 −9.1 (5.63)
- Systolic Blood Pressure, Change from Baseline, Q1 ([1]; Week 4): −13.3
- Systolic Blood Pressure, Change from Baseline, Q2 ([1]; Week 4): −8.5
- Systolic Blood Pressure, Change from Baseline, Q3 ([1]; Week 4): −5.0
- Systolic Blood Pressure, Change from Baseline, max ([1]; Week 4): −1
- Systolic Blood Pressure, Change from Baseline, min ([1]; Week 4): −18
- Diastolic Blood Pressure Mean difference [1, 4]: −3.53 (−11.29, 4.22) mmHg
- Systolic Blood Pressure Mean difference [1, 4]: −2.60 (−14.65, 9.45) mmHg
- Diastolic Blood Pressure, Change from Baseline, Mean difference ([1]; Week 4, interval in brackets): −7.53 (−13.19, −1.88)
- Systolic Blood Pressure, Change from Baseline, Mean difference ([1]; Week 4, interval in brackets): −9.23 (−17.31, −1.16)
- Diastolic Blood Pressure Mean (SD) ([1]; Week 8): 10 75.0 (8.82) mmHg
- Diastolic Blood Pressure Q1 ([1]; Week 8): 66.3 mmHg
- Diastolic Blood Pressure Q2 ([1]; Week 8): 76.5 mmHg
- Diastolic Blood Pressure Q3 ([1]; Week 8): 83.3 mmHg
- Diastolic Blood Pressure max ([1]; Week 8): 85 mmHg
- Diastolic Blood Pressure min ([1]; Week 8): 61 mmHg
- Diastolic Blood Pressure, Change from Baseline, Mean (SD) ([1]; Week 8): 10 −10.1 (6.39)
- Diastolic Blood Pressure, Change from Baseline, Q1 ([1]; Week 8): −12.7
- Diastolic Blood Pressure, Change from Baseline, Q2 ([1]; Week 8): −10.8
- Diastolic Blood Pressure, Change from Baseline, Q3 ([1]; Week 8): −7.0
- Diastolic Blood Pressure, Change from Baseline, max ([1]; Week 8): 0
- Diastolic Blood Pressure, Change from Baseline, min ([1]; Week 8): −22
- Systolic Blood Pressure Mean (SD) ([1]; Week 8): 10 118.6 (12.56) mmHg
- Systolic Blood Pressure Q1 ([1]; Week 8): 112.3 mmHg
- Systolic Blood Pressure Q2 ([1]; Week 8): 119.5 mmHg
- Systolic Blood Pressure Q3 ([1]; Week 8): 127.0 mmHg
- Systolic Blood Pressure max ([1]; Week 8): 135 mmHg
- Systolic Blood Pressure min ([1]; Week 8): 95 mmHg
- Systolic Blood Pressure, Change from Baseline, Mean (SD) ([1]; Week 8): 10 −11.8 (11.44)
- Systolic Blood Pressure, Change from Baseline, Q1 ([1]; Week 8): −18.0
- Systolic Blood Pressure, Change from Baseline, Q2 ([1]; Week 8): −11.8
- Systolic Blood Pressure, Change from Baseline, Q3 ([1]; Week 8): −4.3
- Systolic Blood Pressure, Change from Baseline, max ([1]; Week 8): 6
- Systolic Blood Pressure, Change from Baseline, min ([1]; Week 8): −30
